Laboratory results as given in ChEMBL document CHEMBL1122477, “Neuroleptic activity and dopamine-uptake inhibition in 1-piperazino-3-phenylindans” (J Med Chem, 1983).
Each block holds one compound with its values, some of them ahead of it.

Columns and labels:
[1] = species on record: Mus musculus; assay: Assessed for thymoleptic activity by its ability to antagonize tetrabenazine ptosis in mice; format: functional
[2] = target: Dopamine receptor
Description: Effect on synaptosomal uptake inhibition of Dopamine receptor

[3] = test system: Rattus norvegicus; assay: Tested orally in rats for antagonism of stereotypies induced by amphetamine; format: functional
[4] = species on record: Mus musculus; assay: animal or person; conditions: ip
Description: (§1) Compound (administered intraperitoneally) was assessed for neuroleptic activity to antagonize methyl phenidate induced stereotypes in mice

[5] = species on record: Rattus norvegicus; assay: animal or person; conditions: po
Description: (§2) Ability to induce catalepsy in rats perorally, an effect normally related to clinical extrapyramidal side effects

[6] = species on record: Mus musculus
Description: as §1

[7] = target: T1, Sodium-dependent serotonin transporter (Rattus norvegicus, UniProt P31652)
[8] = target: Sodium-dependent dopamine transporter (Rattus norvegicus, UniProt P23977)
Description: Effect on synaptosomal uptake inhibition of Dopamine transporter

[9] = species on record: Rattus norvegicus
Description: as §2

[10] = target: T1, Sodium-dependent serotonin transporter; assay: Effect on synaptosomal uptake inhibition of 5-hydroxytryptamine (5-HT); format: functional
[11] = target: Norepinephrine transporter (Rattus norvegicus, UniProt Q9WTR4)
Description: (§3) Effect on synaptosomal uptake inhibition of Noradrenaline (NA)

[12] = target: Adrenergic receptor beta (Rattus norvegicus, UniProt P18090+P10608+P26255)
Description: as §3

[13] = Rattus norvegicus, po, read-out: ED50

Chain of Sodium-dependent dopamine transporter (P23977 whole entry): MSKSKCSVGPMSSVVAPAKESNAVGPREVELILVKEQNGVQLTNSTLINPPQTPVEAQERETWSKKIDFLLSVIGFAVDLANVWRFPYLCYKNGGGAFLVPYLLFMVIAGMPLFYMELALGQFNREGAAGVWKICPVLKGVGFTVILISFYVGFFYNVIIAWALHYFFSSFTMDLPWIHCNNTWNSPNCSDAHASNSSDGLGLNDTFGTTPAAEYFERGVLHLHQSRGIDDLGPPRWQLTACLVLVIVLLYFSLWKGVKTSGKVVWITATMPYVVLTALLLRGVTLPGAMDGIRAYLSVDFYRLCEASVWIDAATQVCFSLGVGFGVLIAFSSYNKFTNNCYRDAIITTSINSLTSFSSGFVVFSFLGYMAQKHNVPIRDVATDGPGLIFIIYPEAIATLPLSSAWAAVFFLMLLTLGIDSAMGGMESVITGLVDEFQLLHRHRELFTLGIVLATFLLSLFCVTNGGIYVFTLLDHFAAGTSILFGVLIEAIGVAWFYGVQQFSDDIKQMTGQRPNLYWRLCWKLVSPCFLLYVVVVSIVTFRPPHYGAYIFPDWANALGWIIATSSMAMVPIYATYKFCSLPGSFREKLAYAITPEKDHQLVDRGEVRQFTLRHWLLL
Chain of Norepinephrine transporter (Q9WTR4 whole entry): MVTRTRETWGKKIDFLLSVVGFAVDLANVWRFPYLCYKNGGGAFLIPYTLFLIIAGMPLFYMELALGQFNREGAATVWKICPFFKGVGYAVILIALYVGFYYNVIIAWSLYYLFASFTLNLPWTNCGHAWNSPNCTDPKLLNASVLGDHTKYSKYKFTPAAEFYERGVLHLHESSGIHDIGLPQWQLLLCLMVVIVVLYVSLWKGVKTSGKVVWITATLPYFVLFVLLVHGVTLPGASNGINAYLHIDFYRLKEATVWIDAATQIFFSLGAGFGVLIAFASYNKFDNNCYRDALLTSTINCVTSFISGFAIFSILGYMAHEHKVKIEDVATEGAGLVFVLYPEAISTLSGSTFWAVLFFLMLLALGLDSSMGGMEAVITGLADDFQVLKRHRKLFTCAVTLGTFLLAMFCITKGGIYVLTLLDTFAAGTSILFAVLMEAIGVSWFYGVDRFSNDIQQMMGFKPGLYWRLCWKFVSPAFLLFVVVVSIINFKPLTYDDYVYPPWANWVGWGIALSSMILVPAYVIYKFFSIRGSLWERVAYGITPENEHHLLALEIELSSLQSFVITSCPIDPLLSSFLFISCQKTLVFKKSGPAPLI
T1 sequence (P31652 whole entry): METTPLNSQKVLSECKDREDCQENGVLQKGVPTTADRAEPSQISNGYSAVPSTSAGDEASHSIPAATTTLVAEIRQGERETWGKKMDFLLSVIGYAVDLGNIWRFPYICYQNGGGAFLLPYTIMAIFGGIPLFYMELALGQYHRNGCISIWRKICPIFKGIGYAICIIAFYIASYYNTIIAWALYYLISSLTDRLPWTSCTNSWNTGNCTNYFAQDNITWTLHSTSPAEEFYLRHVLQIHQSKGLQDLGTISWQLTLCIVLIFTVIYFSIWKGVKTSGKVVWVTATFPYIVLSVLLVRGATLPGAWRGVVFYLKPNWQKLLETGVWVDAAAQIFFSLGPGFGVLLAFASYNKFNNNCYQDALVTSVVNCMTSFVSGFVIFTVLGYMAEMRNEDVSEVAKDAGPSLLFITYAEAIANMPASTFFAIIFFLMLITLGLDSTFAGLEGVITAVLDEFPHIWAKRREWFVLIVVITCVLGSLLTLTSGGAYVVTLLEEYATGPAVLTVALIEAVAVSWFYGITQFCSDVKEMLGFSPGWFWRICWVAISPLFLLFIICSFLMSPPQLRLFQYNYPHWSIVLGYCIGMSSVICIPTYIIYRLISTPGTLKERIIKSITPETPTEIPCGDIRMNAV

- IC50 [2]: 100 nM
Structure (SMILES): Cl.Cl.Clc1ccc(C2CC(N3CCN(C/C=C/c4ccccc4)CC3)c3ccccc32)cc1Cl (stereo in doubt; 104)
- ED50 ([1]; Mus musculus, read-out: ED50): > 75 µmol/kg

Structure (SMILES): OCCN1CCN(C2CC(c3ccc(F)cc3)c3cc(F)ccc32)CC1 (trans isomer)
- ED50 [3, 13]: > 93 µmol/kg
- ED50 [4]: 14 µmol/kg
- ED50 [5]: > 93 µmol/kg

Structure (SMILES): CC(O)CN1CCN(C2CC(c3ccc(F)cc3)c3ccc(F)cc32)CC1.Cl.Cl (stereo in doubt; 72)
- ED50 [6]: 45 µM/kg

Structure (SMILES): Cc1ccc([C@@H]2C[C@@H](N3CCN(CCO)CC3)c3cc(C(F)(F)F)ccc32)cc1 (relative stereo)
- ED50 [3, 13]: 64 µmol/kg
- ED50 [4]: 42 µmol/kg
- ED50 [5]: > 81 µmol/kg

Structure (SMILES): CN1CCN(C2CCC(c3ccc(F)cc3)c3ccc(F)cc32)CC1 (stereo in doubt; 3b)
- ED50 [4]: > 96 µmol/kg

- IC50 [7]: 2000 nM
- IC50 [8]: 180 nM
Structure (SMILES): CN1CCN(C2CC(c3ccc(F)cc3)c3ccc(F)cc32)CC1.Cl.Cl (stereo in doubt; 53)
- ED50 [3]: 37 µM/kg
- ED50 [6]: 11 µM/kg
- ED50 [9]: 202 µM/kg

- IC50 [10]: 210 nM
- IC50 [11]: 8.2 nM
- IC50 [2]: 2.8 nM
Structure (SMILES): Cl.Cl.OCCN1CCN(C2CC(c3ccc(Cl)c(Cl)c3)c3ccccc32)CC1 (trans isomer)
- ED50 [1]: 45 µM/kg

- IC50 [2]: 35 nM
Structure (SMILES): Cl.Cl.Clc1ccc(C2CC(N3CCN(C/C=C/c4ccccc4)CC3)c3ccccc32)cc1Cl (cis isomer)
- ED50 [1]: >73 µM/kg

Structure (SMILES): Cl.Cl.Fc1ccc(C2CC(N3CCN(CC4CC4)CC3)c3cc(F)ccc32)cc1 (stereo in doubt; 59)
- ED50 [3, 13]: 36 µmol/kg
- ED50 [6]: 11 µM/kg
- ED50 [5]: 53 µmol/kg

Structure (SMILES): OCC(O)CN1CCN(C2CC(c3ccc(F)cc3)c3ccc(F)cc32)CC1 (configuration not stated)
- ED50 [6]: >51 µM/kg
- ED50 [9]: >102 µM/kg

- IC50 [10]: 120 nM
- IC50 [11]: 6.8 nM
- IC50 [2]: 15 nM
Structure (SMILES): OCCCN1CCN(C2CC(c3ccc(Cl)c(Cl)c3)c3ccccc32)CC1 (configuration not stated)
- ED50 [1]: 12 µM/kg

Structure (SMILES): CN1CCN(C2CC(c3ccc(Cl)c(Cl)c3)c3ccccc32)CC1.Cl.Cl (single isomer, unassigned; 99)
- IC50 [10]: 530 nM
- ED50 [1]: 69 µM/kg
- IC50 [11]: 2.5 nM
- IC50 [2]: 2.3 nM

Structure (SMILES): Cc1ccc2c(c1)C(N1CCN(CCO)CC1)CC2c1ccc(F)cc1 (trans isomer)
- ED50 [3, 13]: 21 µmol/kg
- ED50 [4]: 7.6 µmol/kg
- ED50 [5]: 17 µmol/kg

- IC50 [8]: 93 nM
Structure (SMILES): Cl.Cl.OCCN1CCN(C2CC(c3ccc(F)cc3)c3ccc(C(F)(F)F)cc32)CC1 (cis isomer)
- ED50 [6]: >80 µM/kg
- ED50 [9]: >166 µM/kg

- IC50 [7]: 9700 nM
- IC50 [12]: 140 nM
Structure (SMILES): OCCN1CCN(C2CC(c3ccc(F)cc3)c3ccc(F)cc32)CC1 (configuration not stated)
- ED50 [3]: >112 µM/kg
- ED50 [6]: >112 µM/kg

Structure (SMILES): OCCN1CCN([C@@H]2C[C@@H](c3ccccc3)c3ccc(C(F)(F)F)cc32)CC1 (relative stereo)
- ED50 [3, 13]: 10.4 µmol/kg
- ED50 [4]: 4.7 µmol/kg
- ED50 [5]: 5.7 µmol/kg

- IC50 [7]: 630 nM
- IC50 [8]: 88 nM
Structure (SMILES): CN1CCN(C2CC(c3ccc(F)cc3)c3ccc(F)cc32)CC1.Cl.Cl (stereo in doubt; 55)
- ED50 [3]: >200 µM/kg
- ED50 [6]: 42 µM/kg
- ED50 [9]: >790 µM/kg

Structure (SMILES): Cl.Cl.OCC(CO)N1CCN(C2CC(c3ccc(F)cc3)c3ccc(F)cc32)CC1 (stereo in doubt; 77)
- ED50 [6]: >43 µM/kg

Structure (SMILES): OCCN1CCN(C2CC(c3ccc(F)cc3)c3ccc(Cl)cc32)CC1 (trans isomer)
- ED50 [3, 13]: 3.5 µmol/kg
- ED50 [4]: 2.8 µmol/kg
- ED50 [5]: 3.3 µmol/kg

- IC50 [7]: 400 nM
- IC50 [8]: 210 nM
Structure (SMILES): Cl.Cl.Fc1ccc(C2CC(N3CCN(C/C=C/c4ccccc4)CC3)c3cc(F)ccc32)cc1 (stereo in doubt; 64)
- ED50 [6]: >79 µM/kg

- IC50 [7]: 4000 nM
- IC50 [8]: 1800 nM
Structure (SMILES): CN1CCN(C2CC(c3ccc(F)cc3)c3ccc(F)cc32)CC1.Cl.Cl (single isomer, unassigned; (+))
- ED50 [3]: 15 µM/kg
- ED50 [6]: 2.5 µM/kg
- ED50 [9]: 41 µM/kg

Structure (SMILES): Fc1ccc(C2CC(N3CCN(CCc4ccccc4)CC3)c3cc(F)ccc32)cc1 (cis isomer)
- ED50 [6]: >95 µM/kg

Structure (SMILES): CS(=O)(=O)c1ccc2c(c1)C(N1CCN(CCO)CC1)CC2c1ccc(F)cc1 (trans isomer)
- ED50 [4]: 20 µmol/kg

Structure (SMILES): CN(C)C[C@H]1C2CCC(CC2)[C@H]1c1ccc(Cl)c(Cl)c1 (relative stereo)
- IC50 [10]: 13 nM

Structure (SMILES): N#CCCN1CCN(C2CC(c3ccc(F)cc3)c3ccc(F)cc32)CC1 (trans isomer)
- ED50 [3, 13]: > 91 µmol/kg
- ED50 [4]: 73 µmol/kg

- IC50 [2]: 4500 nM
Structure (SMILES): Cl.Cl.OCCN1CCN(C2CC(c3ccc(Cl)cc3Cl)c3ccccc32)CC1 (trans isomer)
- ED50 ([1]; Mus musculus, read-out: ED50): > 86 µmol/kg

Structure (SMILES): CC(O)CN1CCN(C2CC(c3ccc(F)cc3)c3ccc(F)cc32)CC1.Cl.Cl (stereo in doubt; 71)
- ED50 [3, 13]: 12 µmol/kg
- ED50 [6]: 2.8 µM/kg
- ED50 [5]: 37 µmol/kg

Structure (SMILES): OCCN1CCN([C@@H]2C[C@@H](c3ccc(Cl)cc3)c3ccc(C(F)(F)F)cc32)CC1 (relative stereo)
- ED50 [3, 13]: 22 µmol/kg
- ED50 [4]: 40 µmol/kg
- ED50 [5]: 29 µmol/kg
